Assays:
[1] = Dog half-life (measured), in vivo pharmacokinetics; details: male, 1 mg/kg; elimination half-life in plasma, intravenous 30 minute infusion, beagle dog, mean of a minimum of two dogs
Excerpt: The following describes the methods used to obtain in vivo pharmacokinetic parameters in the male beagle dog. It is applicable for use with any compound but may need modification based on such parameters as solubility, assay sensitivity, anticipated clearance and half-life, when the default formulation, dose level or sampling intervals may be inappropriate. The method described here represents a standard approach from which justified and documented modifications can be made.
A standard dose solution of 1 mg·mL^−1 was prepared. The recommended dose vehicle (if the compound was not sufficiently soluble in isotonic saline) was 10%/o DMSO:90% sterile water or saline with pH adjustment using 1 M HCl or NaOH. […]
Blood samples (˜1 ml) were taken into EDTA treated sampling tubes and plasma was prepared by centrifugation (3 minutes at 13000 rpm) soon after sample collection. Samples were taken at pre determined times over 24 hours (e.g. 0, 5, 15, 30, 35, 45, 60, 90, 120, 180, 240, 300, 360, 420, 720, 1440 minutes). The concentration of the analyte(s) was quantitatively determined in plasma by mass spectrometry. […]
To each of the test samples, dose tests, standards and QCs 100 μL (90 μl for dose tests, standards and QCs) of methanol was added followed by 100 μl of internal standard. […] Aliquots (120 μL) of each sample were transferred into a microtitre plate ready for analysis via HPLC/MS-MS. […]

[2] = test system: plasma proteins; assay: Human plasma protein binding (hPPB), equilibrium dialysis; assay type: in vitro ADME; details: human plasma pH 7.4, 37° C., 18 hours, 10 μM
Experimental: Measurement of Human Plasma Protein Binding (hPPB)
The extent of binding of a drug to plasma proteins is a crucial factor in determining in vivo potency and pharmacokinetics. The method used for determining the extent of plasma protein binding involves equilibrium dialysis of the compound between plasma and buffer at 37° C. The concentrations of compound in the plasma and buffer are then determined using high pressure liquid chromatography (HPLC) with mass spectroscopy (MS) detection. The dialysis method involves the use of mixtures of up to 10 compounds simultaneously. At the concentrations used in the assay, there is no significant difference in the results when compounds are run singly or in mixtures.
Membranes (molecular weight cut-off 5000) were first prepared by soaking in the dialysis buffer for a minimum of 1 hour. […]
The samples and standards were then analysed using HPLC with MS detection, which allows deconvolution of the mixtures of compounds. […]
The chromatograms were processed using MassLynx software that automatically calculates a calibration curve for each compound in a mixture and then interpolates the concentrations of buffer and plasma samples. […] The percentage bound was calculated from the MassLynx data using the following equation: […]
The % free (100-% bound) for each compound was calculated from the concentration data, and then recorded.

CC1CN(S(=O)(=O)Nc2cc(O[C@H](C)[C@@H](O)CO)nc(SCc3ccc(F)cc3)n2)C1 [Example 1, N-(6-((2R,3S)-3,4-Dihydroxybutan-2-yloxy)-2-(4-fluorobenzylthio)pyrimidin-4-yl)-3-methylazetidine-1-sulfonamide]
half-life [1]: 3.7 h | human plasma protein binding (% free) [2]: 0.11 (±0.05) % free

Source: US9975881B2, “Compound” (ASTRAZENECA AB, priority 2011, dated 2018)
